In US5747507A, “Cardio-protective agent” (priority 1992, dated 1998):
Where “and” joins values, the source holds several entries; their conditions need not be identical. Identical values can stand only once.

How the values were obtained:
vascular smooth muscle = conditions: literature; cited from earlier work
[1] = literature; cited from earlier work
heart = conditions: in vivo; cited from earlier work
isolated hearts [2] = assay: Inhibitory effect on myocardial cell injury caused by ischemia/reperfusion (1): coronary artery flow of isolated hearts (Langendorff method); parameters: species or system male Wistar rats; conditions: for Coronary flow change (% based on pre-ischemic values): 40 min after initiation of reperfusion; for Bradycardia and cardiac arrest (in words): perfused isolated hearts; for Lowering of coronary artery flow (in words): ischemia/reperfusion
Source text: Inhibitory effect on myocardial cell injury caused by ischemia/reperfusion (1)
(§1) Hearts excised from male Wistar rats (approximately six-week old) were perfused with the Krebs-Heiseleit solution according to the Langendorff method [Tamura and Fujii, "Yakurigaku Jikkenho (Experimental Methods in Pharmacology)", pp. 176-177, 1990, published by Kyodo-isho Publishing Co., Ltd., Japan; and Yamada, Kubota et al., "Yakurigaku Jisshu (Pharmacological Practice)", pp. 79-81, 1979, published by Kodansha Scientific Co., Ltd., Japan]. After the isolated hearts were allowed to stabilize, the flowing of the perfusate was temporarily stopped, and the isolated hearts were allowed to be in an ischemic state for 40 minutes. Subsequently, reperfusion was conducted for 40 minutes.
Hydrochlorides of compounds (1) and (83) mentioned above were individually dissolved in distilled water, and the resultant aqueous solutions of the hydrochlorides of compounds (1) and (83) were individually introduced to and perfused in a perfusion circuit with the reperfusate for 5 minutes simultaneously with the initiation of reperfusion. In the same manner as mentioned above, diltiazem as a comparative agent and physiological saline as a control were individually perfused with the reperfusate. The perfusion conditions of the aqueous solutions of the hydrochlorides of compounds (1) and (83), diltiazem and physiological saline are shown in Table 3.
With respect to each of the test agents, the coronary artery flow was measured just before the ischemia, i.e., the stopping of the perfusion, and 40 minutes after the initiation of reperfusion using an electromagnetic flow probe FF-030P (manufactured and sold by Nippon Koden Corp., Japan).

[3] = tested on: endothelin-induced myocardial infarction; assay: Inhibitory effect on endothelin-induced myocardial infarction: T-wave elevation in rabbit electrocardiogram; format: in vivo, Japanese White rabbits; conditions: 3.0 mg/kg oral; for T-wave elevation: 15 min before endothelin 1.2 nmol/kg i.v., 3 min after endothelin, mean values
Source text: (§2) Inhibitory effect on endothelin-induced myocardial infarction
(§3) The inhibitory effect of the cardio-protective agent of the present invention on endothelin-induced myocardial infarction was examined in the following manner.
(§4) The animals used in the examination were Japanese White rabbits each weighing 2.0 to 3.1 kg, which were divided into two groups, i.e., a first group consisting of 40 rabbits and a second group consisting of 13 rabbits. The hydrochloride of the above-mentioned compound (1) was dissolved in distilled water, and the resultant solution was orally administered to each of 10 rabbits of the first group in an amount of 3.0 mg/kg (body weight). In the same manner as mentioned above, diltiazem and nicorandil were individually, orally administered to each of another 10 rabbits of the first group. As a control, distilled water was orally administered to each of the remaining 10 rabbits of the first group.
(§5) Fifteen minutes after the administration, 1.2 nmol/kg (body weight) of endothelin (manufactured and sold by Peptide Institute, Japan) was injected into the auricular vein of each of the above rabbits of the first and second groups, thereby inducing myocardial infarction. With respect to the rabbits of the first and second groups, the degree of myocardial infarction was evaluated by rabbit electrocardiogram and by measuring the activity of enzymes leaked into the rabbit plasma, respectively, as follows.
With respect to each of the rabbits of the first group, the rabbit electrocardiogram was taken just before and 3 minutes after the injection of endothelin, according to the standard limb lead II induction method [Ozawa, Training of Electrocardiogram, p. 24-32, 1984, Chugai Igaku Co., Ltd., Japan), and T-wave elevation was measured.

[4] = tested on: endothelin-induced myocardial infarction; assay: Inhibitory effect on endothelin-induced myocardial infarction: creatine kinase activity in rabbit plasma; format: in vivo, Japanese White rabbits
Source text: as §2, §3, §4
(§6) With respect to the rabbits of the second group, the above-prepared aqueous solution of the hydrochloride of compound (1) was orally administered to each of 7 rabbits in the same manner as mentioned above, and as a control, distilled water was orally administered to each of the remaining 6 rabbits.
as §5
(§7) With respect to each of the rabbits of the second group, the blood was collected using a heparinized syringe just before and thirty minutes after the intravenous administration of endothelin. The collected blood was subjected to centrifugation using a cooling centrifuge (CR20B2, manufactured and sold by Hitachi Corp., Japan), to thereby separate plasma. […]

isolated hearts [5] = assay: Inhibitory effect on myocardial cell injury caused by ischemia/reperfusion (2): leaked creatine kinase activity, isolated hearts (Langendorff method); parameters: species or system rats; conditions: mean values
Source text: as §1
(§8) Inhibitory effect on myocardial cell injury caused by ischemia/reperfusion (2)
(§9) In the same manner as in Example 2, hearts excised from rats were perfused in the Krebs-Henseleit solution in accordance with the Langendorff method. After the isolated hearts were allowed to stabilize, the flowing of the perfusate was temporarily stopped, and the isolated hearts were allowed to be in an ischemic state for 20 minutes. Subsequently, reperfusion was conducted for 60 minutes. As activities of the leaked enzymes, the lactate dehydrogenase activity and […] activity were examined with respect to each of the samples using an autoanalizer (Super Z 818, manufactured and sold by NITTEC Co., Ltd., Japan). The aqueous solutions of the hydrochlorides of compounds (1) and (83) were individually introduced to and perfused in a perfusion circuit with reperfusate simultaneously with the initiation of the reperfusion under the conditions as shown in Table 4. As a control, physiological saline was perfused with the reperfusate in the same manner as mentioned above. The above-mentionedactivities of the enzymes leaked into the perfusate and reperfusate were, respectively, measured before the ischemia and 10 minutes after the initiation of reperfusion.

[6] = literature; cited from earlier work; remark: listed apart in the source
[7] = tested on: endothelin-induced myocardial infarction; assay: Inhibitory effect on endothelin-induced myocardial infarction: lactate dehydrogenase activity in rabbit plasma; format: in vivo, Japanese White rabbits
Source text: as §2, §3, §4, §6, §5, §7

[8] = literature; cited from earlier work; remark: listed apart in the source
isolated hearts [9] = assay: Inhibitory effect on myocardial cell injury caused by ischemia/reperfusion (2): leaked lactate dehydrogenase activity, isolated hearts (Langendorff method); parameters: species or system rats; conditions: for Lactate dehydrogenase activity, before ischemia / Lactate dehydrogenase activity, 10 min after initiation of reperfusion: mean values; for Activities of the leaked enzymes (in words): lactate dehydrogenase and creatine kinase, ischemia/reperfusion
Source text: as §1, §8, §9

Japanese White rabbits = assay: Toxicity in oral administration; format: in vivo; conditions: 30 mg/kg (body weight)
Source text: Toxity in oral administration

[10] = plasma, 3.0 mg/kg oral, 30 min after i.v. endothelin, mean values
[11] = plasma, 3.0 mg/kg oral, just before i.v. endothelin, mean values

SMILES | Effect on vascular smooth muscle (vascular smooth muscle) | Effect on blood flow [1] | Coronary flow change (% based on pre-ischemic values) (isolated hearts [2]; 3 × 10^-6 M) | Bradycardia and cardiac arrest (in words) (isolated hearts [2]) | Inhibition of T-wave elevation (in words) [3] | T-wave elevation [3] | Creatine kinase activity, before ischemia (isolated hearts [5]; 10^-5 M group) | Creatine kinase activity, 10 min after initiation of reperfusion (isolated hearts [5]; 10^-5 M) | Cerebral protective effect [6] | Antihypertensive effect [8] | Lowering of coronary artery flow (in words) (isolated hearts [2]) | Lactate dehydrogenase activity, before ischemia (isolated hearts [9]; 10^-5 M group) | Lactate dehydrogenase activity, 10 min after initiation of reperfusion (isolated hearts [9]; 10^-5 M) | Activities of the leaked enzymes (in words) (isolated hearts [9]) | further results
N=C(N)NCCNS(=O)(=O)c1cccc2cnccc12 [(104), N-(2-guanidinoethyl)-5-isoquinolinesulfonamide] | relaxing effect on vascular smooth muscle | increasing effect on blood flow | – | – | – | – | – | – | – | – | – | – | – | – | –
COc1ccc([C@@H]2Sc3ccccc3N(CCN(C)C)C(=O)[C@@H]2OC(C)=O)cc1 [Diltiazem, reference compound] | – | – | 54% | bradycardia and cardiac arrest occurred | T-wave elevation was not inhibited | 0.46 mV | – | – | – | – | – | – | – | – | Side effect on atrioventricular conducting system (heart): atrioventricular conducting system of the patient is depressed; Side effect on heart rate (heart): decrease in heart rate; Bradycardia (isolated hearts [2]; 1 × 10^-5 M): bradycardia; Cardiac arrest (isolated hearts [2]; 1 × 10^-5 M): cardiac arrest
O=C(NCCO[N+](=O)[O-])c1cccnc1 [Nicorandil] | – | – | – | – | T-wave elevation was not inhibited | 0.58 mV | – | – | – | – | – | – | – | – | –
O=S(=O)(c1cccc2cnccc12)N1CCCNCC1 [compound (1), 1-(5-isoquinolinesulfonyl)homopiperazine] | relaxing effect on vascular smooth muscle | increasing effect on blood flow | 70% | neither bradycardia nor cardiac arrest occurred | can remarkably inhibit the T-wave elevation | 0.00 mV and 0 mV | 18.6 IU/min | 901.5 IU/min | cerebral protective effect | antihypertensive effect | greatly inhibited | 21.3 IU/min | 575.3 IU/min | greatly inhibited | Effect on creatine kinase activity in plasma (in words) ([4]; caused by i.v. endothelin): had an inhibitory effect; Creatine kinase activity, 30 min after administration [4, 10]: 163.9 IU/1; Creatine kinase activity, just before administration [4, 11]: 114.6 IU/1; Creatine kinase activity, before ischemia (isolated hearts [5]; 10^-6 M group): 26.6 IU/min; Creatine kinase activity, 10 min after initiation of reperfusion (isolated hearts [5]; 10^-6 M): 1159.8 IU/min; Effect on lactate dehydrogenase activity in plasma (in words) ([7]; caused by i.v. endothelin): had an inhibitory effect; Lactate dehydrogenase activity, 30 min after administration [7, 10]: 52.1 IU/1; Lactate dehydrogenase activity, just before administration [7, 11]: 29.7 IU/1; Lactate dehydrogenase activity, before ischemia (isolated hearts [9]; 10^-6 M group): 22.8 IU/min; Lactate dehydrogenase activity, 10 min after initiation of reperfusion (isolated hearts [9]; 10^-6 M): 732.8 IU/min
O=S(=O)(c1cccc2c(O)nccc12)N1CCCNCC1 [compound (83), 1-(1-hydroxy-5-isoquinolinesulfonyl)homopiperazine] | relaxing effect on vascular smooth muscle | increasing effect on blood flow | – | neither bradycardia nor cardiac arrest occurred | – | – | 17.4 IU/min | 881.5 IU/min | cerebral protective effect | antihypertensive effect | greatly inhibited | 1.2 IU/min | 487.0 IU/min | greatly inhibited | Number of rabbits died/Number of rabbits tested (Japanese White rabbits): 0/5; Coronary flow change (% based on pre-ischemic values) (isolated hearts [2]; 1 × 10^-5 M): 58%; Coronary flow change (% based on pre-ischemic values) (isolated hearts [2]; 3 × 10^-5 M): 61%
